The source of these data is patent publication US20080306268A1, “Crystalline clopidogrel hydrobromide and processes for preparation thereof” (Teva Pharmaceuticals USA, Inc. for Barbados, priority 2004, published 2008).

Counter-ions that a name gives are not always drawn.

In one data set the test system is platelet aggregation. The conditions noted are these: 75 mg base equivalent versus 325 mg aspirin; cited from earlier work.
The conditions of data set [1]: compared with aspirin; cited from earlier work.
The conditions of data set [2]: opened beaker, room temperature, 4 days. Here is the method: Form I may also be prepared by exposing a hygroscopic crystalline clopidogrel hydrobromide to air, preferably for at least about 24 hours. In a preferred embodiment, the clopidogrel hydrobromide exposed is Form II, discussed below.
The conditions of data set [3]: pure crystalline hydrate, purity at least about 99% by HPLC.

`COC(=O)[C@H](c1ccccc1Cl)N1CCc2sccc2C1` [clopidogrel, methyl (+)-(S)-∝-(o-chlorophenyl)-6,7-dihydrothieno[3,2-c]pyridine-5(4H)-acetate]: the “effectiveness in blocking platelet aggregation versus aspirin” value with platelet aggregation is listed as “more effective in blocking platelet aggregation than aspirin”. Further, the “gastrointestinal bleeding versus aspirin” value in data set [1] is “much less gastrointestinal bleeding than aspirin”.
With `COC(=O)[C@H](c1ccccc1Cl)N1CCc2sccc2C1` [Form II, clopidogrel hydrobromide], the “crystalline form after exposure to air” value in data set [2] was “giving clopidogrel hydrobromide form I”.
For `COC(=O)[C@H](c1ccccc1Cl)N1CCc2sccc2C1` [clopidogrel hydrobromide hydrate], in data set [3], the hygroscopicity entry is “only minor hygroscopicity”.
